Tested on: MCF7/FasR cells
Test: Cell death with or without pan-caspase inhibitor z-VAD-fmk, MTT
Assay type: cell-based, human
Conditions: 500 nM complex, 10 µM z-VAD-fmk, 458 nm irradiation, 72 h
Excerpt: To determine the mechanism of cell death, we used MCF7 cells transfected to express the human Fas receptor (FasR) or doubly transfected to express the human Fas receptor and human Bcl-xL [75]. Since MCF7 cells express the TNF receptor endogenously, this allowed the study of both Fas- and TNFα-mediated apoptosis in the same cell model to assess whether cell death was dependent on the Bcl-2 family of mitochondrial proteins such as Bcl-xL. […] This is consistent with findings that death receptors such as FasR and TNFR can mediate apoptosis through both the extrinsic pathway (mitochondria-independent by directly activating executioner caspases via upstream caspase-8) and the intrinsic (mitochondrial) pathway controlled by the Bcl-2 family of proteins.
We next evaluated the effect of the pan-caspase inhibitor z-VAD-fmk on caspase signaling. As expected, the treatment with z-VAD-fmk rendered MCF7/FasR cells resistant to TNFα-induced PARP and caspase-7 processing (Figure 14A) and to the loss of cell viability (Figure 14B).
A tetrazolium-based MTT reagent (3-(4,5-dimethylthiazol-2-yl)-2,5-diphenyltetrazolium bromide) was used to determine cell viability, as previously described. After 72 h of treatment at 37 °C and 5% CO2, cells were incubated with 25 μL MTT solution (5 mg/mL; Sigma-Aldrich) for 4 h. After solubilization with 500 μL of lysis buffer (DMSO), formazan was quantified by spectrophotometry with a microplate reader at 570 nm absorbance (ClarioSTAR, BMG LabTech, Champigny-sur-Marne, France). […] All results were calculated from data obtained in at least three independent experiments.
Figure 11 Bcl-xL and z-VAD-fmk inhibited by Fas- or TNFα-induced cell death in MCF7 cells. […] Cell death was assessed by MTT assay. […]
Figure 14 Evaluation of apoptotic biomarkers. […] (B) Cell viability was evaluated in duplicate samples. Data are expressed as percent (%) of untreated cells and are the means of 3 independent experiments (***, p < 0.0001, NS, not significant).

## CC(C)[n+]1ccn2[c]1[Ir-3]13([c]4ccccc4-c4cccc[n+]41)([c]1ccccc1-c1cccc[n+]13)[c]1n(cc[n+]1C(C)C)C2.F[P-](F)(F)(F)(F)F [Complex 4a]
  effect of z-VAD-fmk on cell death induced by the complex: could not prevent cell death

Source: article PMC9861386, “N-Heterocyclic Carbene-Iridium Complexes as Photosensitizers for In Vitro Photodynamic Therapy to Trigger Non-Apoptotic Cell Death in Cancer Cells” (Molecules, 2023)
